In patent US20240293405A1, “(1H-PYRROLO[2,3-B]PYRIDIN-1-YL)PYRIMIDIN-2-YL-AMINO-PHENYL-ACRYLAMIDE INHIBITORS OF EGFR FOR USE IN THE TREATMENT OF BRAIN TUMORS” (Dana-Farber Cancer Institute, Inc., priority 2021, published 2024):
Several values for one entry are separate records, joined by “and”; a condition that tells them apart may be missing. Equal entries are not always repeated. Entries after “also recorded” stand apart in the source; their conditions may differ. Where two headings read alike, the source gives them in different places.

Tests used:
[1] = Cardiovascular function (telemetry); format: in vivo, dog
Description: This arrythmia was not associated with maximum plasma concentration (Cmax) or Tmax of either parent or metabolite. No definitive link to the test article could be identified. Given the unexplained reversible arrythmia in this high-dose (100 mg/kg) telemetry dog, routine electrocardiogram (ECG) monitoring in Phase 1 is recommended.

[2] = target: ALK, EGFR and FLT3 mutants (Homo sapiens, UniProt P00533); assay: Targeted kinase binding constants, mutant kinases (summary); conditions: read-out: mutant kinase binding (Kd) for several EGFR single and double mutants
Description: Compound 1 and Compound 2 (major metabolite) were evaluated in a panel of 468 human kinases and disease relevant mutant variants. Compound 1 and Compound 2 bound to few non-mutant kinases at <1% of control. […] While there is some variability between Compound 1 and Compound 2, it is clear that both compounds are very effective at binding to a large panel of mutant kinases. […] Binding constant to wild type EGFR was 4.9 nM.

CYP3A4-T = target: T1, CYP3A4-T (Homo sapiens, UniProt P08684); assay: CYP450 inhibition, human liver microsomes; format: in vitro ADME
T1 construct: from tissue; host or cells: human liver microsomes
From the text: (§1) Metabolism, inhibition and induction were not observed with other CYPs. Potential DDI interactions exist with drugs that are inhibitors of CYP3A4-T or those metabolized by CYP3A4/3A5; these DDI risks will be better defined once there are human pharmacokinetics (PK) data.

hERG = hERG (Homo sapiens, UniProt Q12809); assay: hERG assay (HEK cells); format: cell-based
Description: Compound 1 and/or Compound 2 (active/major metabolite) were evaluated for off-target activity in a large panel of receptors and ion channels, including a human ether-i-go-go-related gene (hERG) assay. Compound 1 was assessed comprehensively in Good Laboratory Practice (GLP) safety pharmacology studies, including studies of cardiovascular, respiratory and central nervous system function.

BT112 cells = assay: Cell viability, patient-derived GBM line BT112; conditions: Homo sapiens, 72 h
Description: Primary human glioblastoma lines BT112, BT179 and BT333 were maintained in NeuroCult proliferation medium (human) (StemCell Technologies) with 20 ng/ml EGF, 10 ng/ml FGF and 0.0002% Heparin.

[3] = Plasma, brain and lung levels after 7 days oral dosing; format: in vivo, Sprague Dawley Rats; conditions: Sprague Dawley, rat, 24 hrs after last dosing
[4] = system: three primary patient-derived GBM cell lines harboring EGFR amplification and/or mutations; assay: Cell viability, three patient-derived GBM cell lines (summary); format: cell-based; conditions: Homo sapiens; neurosphere culture; read-out: IC50 of cell viability, range over three patient cell lines
Description: (§2) Cells were seeded in 96-well plates at a density of 1,000 cells per well and treated with two-fold serial dilutions of compounds with a starting concentration of 20 μM. Cell viability was assessed after three days of treatment by CellTiter-Glo (Promega). Curve fitting analysis and IC50 value determination were performed using GraphPad Prism 8.

[5] = system: phosphorylated EGFR and cell viability; assay: In vitro GBM studies, summary (phosphorylated EGFR and cell viability); format: cell-based; conditions: GBM models; read-out: IC50 range in in vitro studies targeting decreases in phosphorylated EGFR and cell viability
From the text: Compound 1, a third-generation tyrosine kinase inhibitor, is under development for GBM (Wang 2020) Compound 1 binds covalently to its target.

[6] = system: NCI-H1975 cells (EGFR L858R/T790M mutation); assay: Cell viability assay, NCI-H1975 (CellTiter-Glo); format: cell-based; conditions: Homo sapiens; NCI-H1975, 72 hours; read-out: IC50, cell viability
From the text: CellTier-Glo (Promega) assay kit (https://www.promega.com/resources/protocols/technical-bulletins/0/celltiter-glo-luminescentcell-viability-assay-protocol/) was used here.

[7] = Oral dog dose-range toxicity study; format: in vivo
Description: In the dog dose-range study, Compound 1 was given to male and female beagle dogs orally by gavage either once (30, 100, 600, 1000 mg/kg) or once daily for 14 days (30, 100, 300 mg/kg/day).
The HNSTD was estimated to be 100 mg/kg/day in this study.

Caco-2 cells = assay: Permeation and absorption in Caco-2 cells; format: in vitro ADME
From the text: (§3) Further understanding of DDI risk will await definition of Phase 2 doses and exposures.

U251-EGFRvIII cells = assay: Viability/proliferation of U251-EGFRvIII cells; format: cell-based, human
Description: as §2
In parallel, the conventional human GBM U251 cell line was used as a surrogate model for both in vitro and in vivo studies. U251 cells were engineered to stably express EGFRvIII (U251-EGFRvIII) via retroviral-mediated gene transfer.

CYP3A4 = assay: CYP 1A2, 2B6 and 3A4 induction, human hepatocytes; format: in vitro ADME
From the text: as §1

human BCRP = target: T2, human BCRP (Homo sapiens, UniProt Q9UNQ0); assay: BCRP inhibition (rosuvastatin transport, Caco-2 cells); format: in vitro ADME; conditions: read-out: apparent IC50, rosuvastatin transport via human BCRP (converted)
T2 construct: endogenous in cells; host or cells: Caco-2 cells
From the text: as §3

EGFRvIII = EGFRvIII (Homo sapiens, UniProt P00533, DELINS30-297G); assay: EGFRvIII phosphorylation in 293-EGFRvIII cells (western blot); format: cell-based; parameters: expressed in transfected cells; conditions: 6 hours, read-out: IC50 on EGFRvIII phosphorylation (pEGFRvIII1068)
Sequence of EGFRvIII (P00533 with tags, fused parts or gaps DELINS30-297G): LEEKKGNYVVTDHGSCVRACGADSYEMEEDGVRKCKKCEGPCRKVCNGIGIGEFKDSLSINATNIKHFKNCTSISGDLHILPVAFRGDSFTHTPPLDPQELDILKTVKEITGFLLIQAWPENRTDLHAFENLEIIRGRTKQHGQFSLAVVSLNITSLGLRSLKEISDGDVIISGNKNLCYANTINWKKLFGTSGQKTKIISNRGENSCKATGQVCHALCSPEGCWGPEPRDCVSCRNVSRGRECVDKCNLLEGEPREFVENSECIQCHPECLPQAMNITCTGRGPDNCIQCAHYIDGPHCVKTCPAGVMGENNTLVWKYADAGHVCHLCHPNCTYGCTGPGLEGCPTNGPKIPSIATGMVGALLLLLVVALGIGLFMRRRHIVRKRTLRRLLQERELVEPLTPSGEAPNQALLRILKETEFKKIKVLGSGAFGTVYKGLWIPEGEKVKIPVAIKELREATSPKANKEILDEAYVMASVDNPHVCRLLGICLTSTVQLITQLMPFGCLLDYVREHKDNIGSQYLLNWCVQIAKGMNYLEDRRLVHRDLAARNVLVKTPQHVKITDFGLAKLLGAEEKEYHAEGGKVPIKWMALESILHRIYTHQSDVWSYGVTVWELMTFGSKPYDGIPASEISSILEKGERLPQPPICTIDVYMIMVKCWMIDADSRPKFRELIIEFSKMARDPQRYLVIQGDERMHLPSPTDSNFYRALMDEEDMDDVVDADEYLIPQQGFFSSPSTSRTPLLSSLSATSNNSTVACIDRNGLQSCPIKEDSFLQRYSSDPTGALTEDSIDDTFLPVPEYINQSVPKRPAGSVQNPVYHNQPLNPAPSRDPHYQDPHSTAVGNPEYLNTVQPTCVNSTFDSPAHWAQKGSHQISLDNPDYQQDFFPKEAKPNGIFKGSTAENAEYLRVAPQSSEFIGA

Sequence of hERG (Q12809 whole entry): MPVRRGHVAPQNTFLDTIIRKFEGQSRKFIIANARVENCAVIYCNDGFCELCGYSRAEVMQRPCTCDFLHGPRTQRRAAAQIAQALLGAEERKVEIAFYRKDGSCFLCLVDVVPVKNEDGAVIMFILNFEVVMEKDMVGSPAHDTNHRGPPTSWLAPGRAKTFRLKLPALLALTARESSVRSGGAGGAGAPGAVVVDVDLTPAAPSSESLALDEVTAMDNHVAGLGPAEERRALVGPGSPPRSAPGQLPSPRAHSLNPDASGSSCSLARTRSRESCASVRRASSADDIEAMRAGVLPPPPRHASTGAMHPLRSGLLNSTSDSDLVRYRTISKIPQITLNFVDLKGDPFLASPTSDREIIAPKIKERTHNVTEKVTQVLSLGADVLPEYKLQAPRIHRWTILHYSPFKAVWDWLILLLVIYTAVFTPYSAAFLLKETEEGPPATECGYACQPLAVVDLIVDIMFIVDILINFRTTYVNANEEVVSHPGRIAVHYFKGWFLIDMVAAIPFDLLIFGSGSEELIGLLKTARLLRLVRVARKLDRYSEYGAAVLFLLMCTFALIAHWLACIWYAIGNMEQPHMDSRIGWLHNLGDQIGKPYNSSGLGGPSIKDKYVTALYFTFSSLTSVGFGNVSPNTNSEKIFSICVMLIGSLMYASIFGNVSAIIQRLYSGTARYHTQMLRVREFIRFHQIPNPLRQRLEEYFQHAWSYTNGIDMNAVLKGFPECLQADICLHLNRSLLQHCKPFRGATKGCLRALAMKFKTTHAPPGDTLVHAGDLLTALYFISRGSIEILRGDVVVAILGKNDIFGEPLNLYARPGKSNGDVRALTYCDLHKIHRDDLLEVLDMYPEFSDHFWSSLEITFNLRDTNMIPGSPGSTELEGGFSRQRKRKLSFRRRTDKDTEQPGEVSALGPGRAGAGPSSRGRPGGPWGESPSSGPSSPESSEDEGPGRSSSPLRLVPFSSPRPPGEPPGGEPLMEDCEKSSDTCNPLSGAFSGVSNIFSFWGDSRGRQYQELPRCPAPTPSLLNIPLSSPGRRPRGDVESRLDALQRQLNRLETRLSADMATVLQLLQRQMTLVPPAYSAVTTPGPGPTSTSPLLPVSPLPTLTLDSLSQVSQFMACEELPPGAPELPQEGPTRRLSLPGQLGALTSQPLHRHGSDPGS
T2 sequence (Q9UNQ0 whole entry): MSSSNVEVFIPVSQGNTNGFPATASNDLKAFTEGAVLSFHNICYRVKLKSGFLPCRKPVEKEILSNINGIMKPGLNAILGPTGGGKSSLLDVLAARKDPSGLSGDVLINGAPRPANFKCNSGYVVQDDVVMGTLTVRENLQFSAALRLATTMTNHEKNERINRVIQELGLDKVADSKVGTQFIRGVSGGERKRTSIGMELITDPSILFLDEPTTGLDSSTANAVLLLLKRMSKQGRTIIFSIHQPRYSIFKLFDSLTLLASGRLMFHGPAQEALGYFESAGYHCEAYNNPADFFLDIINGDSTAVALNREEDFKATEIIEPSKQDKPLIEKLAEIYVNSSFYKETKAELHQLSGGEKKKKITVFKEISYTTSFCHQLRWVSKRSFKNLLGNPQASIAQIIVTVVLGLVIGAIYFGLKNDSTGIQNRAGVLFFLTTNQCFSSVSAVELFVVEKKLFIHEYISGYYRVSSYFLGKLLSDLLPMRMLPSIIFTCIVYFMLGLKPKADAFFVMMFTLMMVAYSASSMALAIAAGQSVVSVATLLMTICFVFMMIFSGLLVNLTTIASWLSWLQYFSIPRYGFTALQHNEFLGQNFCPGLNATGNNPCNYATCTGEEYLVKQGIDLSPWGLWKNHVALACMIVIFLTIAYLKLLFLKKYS
T1 sequence (P08684 whole entry): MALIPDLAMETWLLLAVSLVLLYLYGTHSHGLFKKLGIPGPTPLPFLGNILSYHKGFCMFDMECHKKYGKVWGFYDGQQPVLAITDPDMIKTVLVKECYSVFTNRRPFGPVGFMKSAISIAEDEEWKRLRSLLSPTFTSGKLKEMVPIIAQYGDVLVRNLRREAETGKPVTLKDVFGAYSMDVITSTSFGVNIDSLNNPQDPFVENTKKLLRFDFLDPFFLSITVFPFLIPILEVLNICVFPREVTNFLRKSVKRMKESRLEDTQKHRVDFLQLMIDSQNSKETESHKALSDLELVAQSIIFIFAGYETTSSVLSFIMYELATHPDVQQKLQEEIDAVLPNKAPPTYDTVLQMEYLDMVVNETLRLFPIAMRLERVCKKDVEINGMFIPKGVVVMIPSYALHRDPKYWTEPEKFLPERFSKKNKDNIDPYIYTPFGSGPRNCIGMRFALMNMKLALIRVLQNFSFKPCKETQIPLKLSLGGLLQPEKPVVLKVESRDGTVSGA
Sequence of ALK, EGFR and FLT3 mutants (P00533 25-1210 limits assumed, change not shown): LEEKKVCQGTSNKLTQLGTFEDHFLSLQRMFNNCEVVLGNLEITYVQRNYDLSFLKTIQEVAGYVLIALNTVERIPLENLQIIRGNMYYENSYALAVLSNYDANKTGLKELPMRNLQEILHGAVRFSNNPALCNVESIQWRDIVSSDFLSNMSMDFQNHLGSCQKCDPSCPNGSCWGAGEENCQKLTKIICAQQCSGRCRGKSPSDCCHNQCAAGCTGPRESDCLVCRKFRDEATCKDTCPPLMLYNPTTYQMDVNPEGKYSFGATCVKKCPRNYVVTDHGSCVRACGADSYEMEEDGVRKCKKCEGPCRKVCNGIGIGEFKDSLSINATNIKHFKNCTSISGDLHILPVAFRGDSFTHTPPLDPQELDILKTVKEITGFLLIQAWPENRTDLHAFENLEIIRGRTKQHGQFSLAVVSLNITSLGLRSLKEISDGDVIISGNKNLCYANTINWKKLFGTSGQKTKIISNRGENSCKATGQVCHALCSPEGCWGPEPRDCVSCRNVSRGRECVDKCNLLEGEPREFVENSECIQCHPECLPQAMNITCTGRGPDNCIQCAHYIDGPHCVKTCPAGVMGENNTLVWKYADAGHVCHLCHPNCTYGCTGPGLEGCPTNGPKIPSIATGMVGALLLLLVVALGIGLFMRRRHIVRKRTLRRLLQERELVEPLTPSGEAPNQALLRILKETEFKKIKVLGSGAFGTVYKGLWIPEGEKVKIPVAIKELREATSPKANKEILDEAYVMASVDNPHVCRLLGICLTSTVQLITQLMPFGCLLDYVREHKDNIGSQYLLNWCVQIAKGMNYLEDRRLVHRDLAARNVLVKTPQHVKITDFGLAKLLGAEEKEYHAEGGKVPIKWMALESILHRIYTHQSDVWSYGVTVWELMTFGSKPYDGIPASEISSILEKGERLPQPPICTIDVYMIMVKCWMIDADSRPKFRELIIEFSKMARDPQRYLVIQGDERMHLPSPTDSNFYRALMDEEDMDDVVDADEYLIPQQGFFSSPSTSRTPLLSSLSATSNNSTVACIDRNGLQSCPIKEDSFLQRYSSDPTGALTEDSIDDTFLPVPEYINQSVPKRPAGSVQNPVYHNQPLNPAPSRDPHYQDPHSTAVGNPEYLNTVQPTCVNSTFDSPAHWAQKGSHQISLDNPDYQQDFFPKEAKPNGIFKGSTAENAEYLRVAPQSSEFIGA

## C=CC(=O)Nc1cc(Nc2nccc(-n3ccc4cccnc43)n2)c(OC)cc1N(C)CCN(C)C [Compound 1, N-(5-((4-(1H-pyrrolo[2,3-b]pyridin-1-yl)pyrimidin-2-yl)amino)-2-((2-(dimethylamino)ethyl)(methyl)amino)-4-methoxyphenyl)acrylamide]
[1]; 100 mg/kg, 10 to 24 hours after dose
  dogs with reversible ventricular conduction disturbance: 1 of 4
[1]; doses up to 100 mg/kg
  QTc, blood pressure and cardiac intervals: no QTc signals; also recorded: no adverse effects on blood pressure or cardiac intervals
[1]; plasma, dog, 100 mg/kg Compound 1 PO, M38 as metabolite, read-out: estimated single-dose Cmax
  Cmax: 2620 ng/mL and 5.4 µM
[2]
  Kd: < 0.001 µM
CYP3A4-T
  IC50: 4.89 µM
hERG
  IC50: 1.9 µM
  hERG IC100: ~30 µM
BT112 cells
  IC50: 2.04 µM
[3]; brain, 10 mg/kg po qd 7 days, Female, read-out: Brain
  concentration at 24 h: 39.8 ng/g
[3]; brain, 10 mg/kg po qd 7 days, Male, read-out: Brain
  concentration at 24 h: 14.9 ng/g
[3]; brain, 50 mg/kg po qd 7 days, Female, read-out: Brain
  concentration at 24 h: 3770 ng/g
[3]; brain, 50 mg/kg po qd 7 days, Male, read-out: Brain
  concentration at 24 h: 2080 ng/g
[3]; lung, 10 mg/kg po qd 7 days, Female, read-out: Lung
  concentration at 24 h: 1220 ng/g
[3]; lung, 10 mg/kg po qd 7 days, Male, read-out: Lung
  concentration at 24 h: 329 ng/g
[3]; lung, 50 mg/kg po qd 7 days, Female, read-out: Lung
  concentration at 24 h: 45000 ng/g
[3]; lung, 50 mg/kg po qd 7 days, Male, read-out: Lung
  concentration at 24 h: 9710 ng/g
[3]; plasma, 10 mg/kg po qd 7 days, Female, read-out: Plasma
  concentration at 24 h: 20.8 ng/mL
[3]; plasma, 10 mg/kg po qd 7 days, Male, read-out: Plasma
  concentration at 24 h: 10.6 ng/mL
[3]; plasma, 50 mg/kg po qd 7 days, Female, read-out: Plasma
  concentration at 24 h: 244 ng/mL
[3]; plasma, 50 mg/kg po qd 7 days, Male, read-out: Plasma
  concentration at 24 h: 149 ng/mL
[4]
  IC50: 0.89 to 3.28 µM
[5]
  IC50: 0.17 to 3.28 µM
[6]
  IC50: 0.0344 µM
[7]; 30 to 1000 mg/kg
  tolerability of a single oral dose: well tolerated
[7]; 14 days oral, estimated
  HNSTD: 100 mg/kg/day
Caco-2 cells
  permeability in Caco-2 cells: Moderate permeability
  substrate of efflux transporters: not likely a transporter substrate; also recorded: not likely a substrate of efflux transporters; also recorded: not a likely substrate of efflux transporters
Caco-2 cells; listed as Compound 11
  substrate of efflux transporters: unlikely that Compound 11 is a substrate of efflux transporters; also recorded: not a substrate
U251-EGFRvIII cells; Homo sapiens, values of the text and Table 9, read-out: IC50, viability of U251-EGFRvIII cells
  IC50: 1.52 µM
U251-EGFRvIII cells; Homo sapiens, Table 2, read-out: IC50 on U251-EGFRvIII cell proliferation
  IC50: 1.48 µM
U251-EGFRvIII cells; U251-EGFRvIII cells
  cell survival, fold less than that of erlotinib: 9 fold
  cell survival, fold less than that of gefitinib: 13 fold
U251-EGFRvIII cells; values of the text and Table 9, read-out: IC50, viability of U251-EGFRvIII cells
  IC50: 1.5 µM
CYP3A4
  CYP induction based on enzyme activity: no CYP induction
Human BCRP
  IC50: 3.02 µM
EGFRvIII
  IC50: 0.19 µM
